A word on the logP: it is a log measure of how a compound divides between an organic and an aqueous phase. Low values mean a more hydrophilic compound, high ones a more lipophilic compound.

The test system of series [1] is Puccinia recondita. The series is described as follows: Puccinia test (wheat) / protective. The following applies: 240 h, read-out: efficacy. Type of series: in vivo. As to the method: (§1) To produce a suitable preparation of active compound, 1 part by weight of active compound is mixed with the stated amounts of solvent and emulsifier, and the concentrate is diluted with water to the desired concentration.
To test for protective activity, young plants are sprayed with the active compound preparation at the stated application rate. After the spray coating has dried on, the plants are sprayed with a conidia suspension of Puccinia recondita. The plants remain in an incubation cabin at 20° C. and 100% relative atmospheric humidity for 48 hours.
The plants are then placed in a greenhouse at a temperature of about 20° C. and a relative atmospheric humidity of 80% to promote the development of rust pustules.
(§2) Evaluation is carried out 10 days after the inoculation. 0% means an efficacy which corresponds to that of the control, whereas an efficacy of 100% means that no infection is observed.

For series [2], the system named is Podosphaera leucotricha. The series is described as follows: Podosphaera test (apple) / protective. Type of series: in vivo. To be noted: 240 h, read-out: efficacy. The protocol:
as §1
To test for protective activity, young plants are sprayed with the active compound preparation at the stated application rate. After the spray coating has dried on, the plants are inoculated with an aqueous spore suspension of the apple mildew pathogen Podosphaera leucotricha. The plants are then placed in a greenhouse at about 23° C. and a relative atmospheric humidity of about 70%.
as §2

The subject of series [3] is Sphaerotheca fuliginea. The series is described as follows: Sphaerotheca test (cucumber) / protective. In kind it is in vivo. The following applies: Podosphaera fuliginea, 168 h, read-out: efficacy. As to the method: as §1
To test for protective activity, young plants are sprayed with the active compound preparation at the stated application rate. After the spray coating has dried, the plants are inoculated with an aqueous spore suspension of Sphaerotheca fuliginea. The plants are then placed in a greenhouse at about 23° C. and a relative atmospheric humidity of about 70%.
Evaluation is carried out 7 days after the inoculation. 0% means an efficacy which corresponds to that of the control, whereas an efficacy of 100% means that no infection is observed.

A short description of series [4]: logP (acidic, pH 2.3).
Series [5] concerns Botrytis cinerea. The series is described as follows: Botrytis test (bean) / protective. In kind it is in vivo. The following applies: 48 h, read-out: efficacy. As to the method: as §1
To test for protective activity, young plants are sprayed with the active compound preparation at the stated application rate. After the spray coating has dried on, 2 small pieces of agar overgrown with Botrytis cinerea are placed on each leaf. The inoculated plants are then placed in a darkened chamber at about 20° C. and 100% relative atmospheric humidity.
Two days after the inoculation the size of the infected spots on the leaves is evaluated. 0% means an efficacy which corresponds to that of the control, whereas an efficacy of 100% means that no infection is observed.

For series [6], the system named is Uromyces appendiculatus. As to the kind of experiment: Uromyces test (bean) / protective. Type of series: in vivo. The following applies: 240 h, read-out: efficacy. The protocol:
as §1
To test for protective activity, young plants are sprayed with the active compound preparation at the stated application rate. After the spray coating has dried on, the plants are inoculated with an aqueous spore suspension of the bean rust pathogen Uromyces appendiculatus and then remain in an incubation cabin at about 20° C. and 100% relative atmospheric humidity for 1 day.
The plants are then placed in a greenhouse at about 21° C. and a relative atmospheric humidity of about 90%.
as §2

Setting [7] is: wheat plants, protective spray, active compound concentration 1000 ppm, evaluation 10 days after inoculation.
Where [8] appears, read: apple plants, protective spray, active compound concentration 100 ppm, evaluation 10 days after inoculation.
Where [9] appears, read: cucumber plants, protective spray, active compound concentration 100 ppm, evaluation 7 days after inoculation.
The mark [10] stands for this setting: bean plants, protective spray, active compound concentration 10 ppm, evaluation 10 days after inoculation.
The mark [11] stands for this setting: bean plants, protective spray, active compound concentration 250 ppm, evaluation two days after inoculation.

Where two headings read alike, the source gives them in different places. Bounds are passed on as bounds.

With `Cc1cc(Oc2ccc(-c3ccccc3Cl)cc2)c(C)cc1/N=C/N1CCCCC1` [Compound 26], the pest or weed control at 1000 ppm in series [1] was at least 70%. Also, the pest or weed control at 100 ppm in series [2] and in series [3] was at least 70% in each case. In addition, in series [4] (pH 2.3), the logP is 2.77. For the same compound, the pest or weed control at 250 ppm in series [5] is at least 70%.

As to `Cc1cc(Oc2ccc(-c3ccccc3C(F)(F)F)cc2)c(C)cc1/N=C/N1CCCCC1` [Compound 20], the pest or weed control at 1000 ppm in series [1] is at least 70%. For the same compound, the pest or weed control at 100 ppm in series [2] and in series [3] was at least 70% each time. The same compound showed a logP in series [4] (pH 2.3) of 2.93. In addition, in series [5], the pest or weed control at 250 ppm was at least 70%.

As to `Cc1cc(Oc2ccc(-c3ccccc3OCC(C)C)cc2)c(C)cc1/N=C/N1CCCCC1` [Compound 28, 4-[(2′-isobutoxybiphenyl-4-yl)oxy]-2,5-dimethyl-N-[(1E)-piperidin-1-ylmethylene]aniline], in series [4] (pH 2.3, logP acidic, acidic), the logP is 3.44.

The compound `CCN(C)C=Nc1cc(C)c(Oc2ccc(-c3ccccc3)cc2)cc1C` [Compound 31, N′-[4-(biphenyl-4-yloxy)-2,5-dimethylphenyl]-N-ethyl-N-methylimidoformamide] had a logP in series [4] (pH 2.3, logP acidic, acidic) of 2.64.

As for `CCN(C)C=Nc1cc(C)c(Oc2ccc(-c3ccccc3OC)cc2)cc1C` [Compound 19], in series [1], the pest or weed control at 1000 ppm was at least 70%. The pest or weed control at 100 ppm in series [3] was at least 70%. In addition, in series [6], the pest or weed control at 10 ppm is at least 70%. In addition, in series [4] (pH 2.3), the logP stood at 2.49. In addition, the pest or weed control at 250 ppm in series [5] was at least 70%.

As for `CCc1ccccc1-c1ccc(Oc2cc(C)c(/N=C/N3CCCCC3)cc2C)cc1` [Compound 23], the pest or weed control at 1000 ppm in series [1] is at least 70%. Further, the pest or weed control at 100 ppm in series [2] and in series [3] was at least 70% each time. In series [4] (pH 2.3), this compound gave a logP of 3.34. Besides, the pest or weed control at 250 ppm in series [5] was at least 70%.

For `CCN(C)C=Nc1cc(C)c(Oc2ccc(-c3ccc(S(=O)(=O)CC)cc3)cc2)cc1C` [Compound 2, N-ethyl-N′-(4-{[4′-(ethylsulfonyl)biphenyl-4-yl]oxy}-2,5-dimethylphenyl)-N-methylimidoformamide], the pest or weed control at 1000 ppm in series [1] (setting [7]) was at least 70%. Besides, the pest or weed control at 100 ppm in series [2] (setting [8]) and in series [3] (setting [9]) was at least 70% throughout. Further, the pest or weed control at 10 ppm in series [6] (setting [10]) is at least 70%. For the same compound, in series [4] (pH 2.3, logP acidic, acidic), the logP was found to be 2.06.

As for `CC(=O)c1ccccc1-c1ccc(Oc2cc(C)c(/N=C/N3CCCCC3)cc2C)cc1` [Compound 22], the pest or weed control at 100 ppm in series [2] and in series [3] was at least 70% throughout. In series [4] (pH 2.3), this compound came in with a logP of 3.52. The pest or weed control at 250 ppm in series [5] is at least 70%.

Turning to `CCN(C)C=Nc1cc(C)c(Oc2ccc(-c3ccc(C(F)(F)F)cc3)cc2)cc1C` [Compound 3, N′-(2,5-dimethyl-4-{[4′-(trifluoromethyl)biphenyl-4-yl]oxy}phenyl)-N-ethyl-N-methylimidoformamide], the pest or weed control at 1000 ppm in series [1] (setting [7]) is at least 70%. Moreover, the pest or weed control at 100 ppm in series [2] (setting [8]) and in series [3] (setting [9]) was at least 70% throughout. This compound showed a logP in series [4] (pH 2.3, logP acidic, acidic) of 2.94. Moreover, in series [5] (setting [11]), the pest or weed control at 250 ppm was at least 70%.

For the compound `Cc1cc(Oc2ccc(C3CCCC3)cc2)c(C)cc1/N=C/N1CCCCC1C` (centres unmarked) [Compound 34, 4-(4-cyclopentylphenoxy)-2,5-dimethyl-N-[(1E)-(2-methylpiperidin-1-yl)methylene]aniline], the pest or weed control at 1000 ppm in series [1] (setting [7]) was at least 70%. Further, in series [4] (pH 2.3, logP acidic, acidic), the logP came out at 3.22.

As to `CCN(C)C=Nc1cc(C)c(Oc2ccc(-c3ccccc3OCC(C)C)cc2)cc1C` [Compound 29, N-ethyl-N′-{4-[(2′-isobutoxybiphenyl-4-yl)oxy]-2,5-dimethylphenyl}-N-methylimidoformamide], in series [4] (pH 2.3, logP acidic, acidic), the logP worked out at 3.14.

In series [4] (pH 2.3), `CCN(C)C=Nc1cc(C)c(Oc2ccc(-c3ccc(/C=N/OC)cc3)cc2)cc1C` [Compound 12] gave a logP of 2.75.

Compound `COc1ccc(-c2ccc(Oc3cc(C)c(N)cc3C)cc2)cc1` [4-[4-(4-Methoxyphenyl)phenoxy]-2,5-dimethylaniline] displayed a logP in series [4] (pH 2.3, log P (pH 2.3), pH 2.3) of 3.06.

`CCN(C)C=Nc1cc(C)c(Oc2ccc(-c3ccc(N(C)C)cc3)cc2)cc1C` [Compound 4, N′-(4-{[4′-(dimethylamino)biphenyl-4-yl]oxy}-2,5-dimethylphenyl)-N-ethyl-N-methylimidoformamide] displayed a logP in series [4] (pH 2.3, logP acidic, acidic) of 2.13.

For `Cc1cc(Oc2ccc(C3CCCCC3)cc2)c(C)cc1N` [4-(4-Cyclohexylphenoxy)-2,5-dimethylaniline], the logP in series [4] (pH 2.3, log P (pH 2.3), pH 2.3) was 4.25.

On to `CCN(C)C=Nc1cc(C)c(Oc2ccc(-c3ccc(C(C)=O)cc3)cc2)cc1C` [Compound 8, N′-{4-[(4′-acetylbiphenyl-4-yl)oxy]-2,5-dimethylphenyl}-N-ethyl-N-methylimidoformamide], for which the pest or weed control at 100 ppm in series [2] (setting [8]) and in series [3] (setting [9]) was at least 70% each time. For the same compound, the pest or weed control at 10 ppm in series [6] (setting [10]) was at least 70%. For the same compound, in series [4] (pH 2.3, logP acidic, acidic), the logP came to 2.32.

On to `Cc1cc(Oc2ccc(-c3ccccc3F)cc2)c(C)cc1/N=C/N1CCCCC1` [Compound 21], for which the pest or weed control at 1000 ppm in series [1] is at least 70%. For the same compound, the logP in series [4] (pH 2.3) was 2.98.

On to `Cc1cc(Oc2ccc(-c3ccccc3C(C)C)cc2)c(C)cc1/N=C/N1CCCCC1` [Compound 25], for which the pest or weed control at 100 ppm in series [2] and in series [3] was at least 70% throughout. The pest or weed control at 10 ppm in series [6] was at least 70%. Besides, the logP in series [4] (pH 2.3) was 2.46. The pest or weed control at 250 ppm in series [5] is at least 70%.

`CCN(C)C=Nc1cc(C)c(Oc2ccc(-c3ccccc3C(F)(F)F)cc2)cc1C` [Compound 14]: the pest or weed control at 1000 ppm in series [1] was at least 70%. The pest or weed control at 100 ppm in series [2] and in series [3] was at least 70% each time. In addition, the logP in series [4] (pH 2.3) came to 2.77. Further, the pest or weed control at 250 ppm in series [5] was at least 70%.

As to `CCCCO/N=C/c1ccc(-c2ccc(Oc3cc(C)c(N=CN(C)CC)cc3C)cc2)cc1` [Compound 10], the log partition coefficient (logP) in series [4] (pH 2.3) came to 3.51.

Turning to `Cc1cc(Oc2ccc(-c3ccccc3C)cc2)c(C)cc1/N=C/N1CCCCC1` [Compound 24], the pest or weed control at 1000 ppm in series [1] is at least 70%. The pest or weed control at 100 ppm in series [2] and in series [3] was at least 70% each time. The logP in series [4] (pH 2.3) came to 3.22. The pest or weed control at 250 ppm in series [5] is at least 70%.

Regarding “4-[(4′-fluorobiphenyl-4-yl)oxy]-2,5-dimethyl-N-[(1E)-pyrrolidin-1-ylmethylene]aniline [Compound 30]”, the logP acidic in series [4] (acidic) worked out at 2.62.

Compound `Cc1cc(Oc2ccc(Br)cc2)c(C)cc1N` [4-(4-Bromophenoxy)-2,5-dimethylaniline] had a logP in series [4] (pH 2.3, log P (pH 2.3), pH 2.3) of 2.88.

Regarding `CCN(C)C=Nc1cc(C)c(Oc2ccc(-c3ccc(C(C)(C)C)cc3)cc2)cc1C` [Compound 7, N′-(2,5-dimethyl-4-{[4′-(tert-butyl)biphenyl-4-yl]oxy}phenyl)-N-ethyl-N-methylimidoformamide], the pest or weed control at 100 ppm in series [2] (setting [8]) and in series [3] (setting [9]) was at least 70% throughout. This compound also gave a logP in series [4] (pH 2.3, logP acidic, acidic) of 3.41. Also, the pest or weed control at 250 ppm in series [5] (setting [11]) is at least 70%.

Turning to `CCN(C)C=Nc1cc(C)c(Oc2ccc(-c3ccccc3C(C)C)cc2)cc1C` [Compound 15], the pest or weed control at 1000 ppm in series [1] was at least 70%. The pest or weed control at 100 ppm in series [2] and in series [3] was at least 70% throughout. Moreover, the logP in series [4] (pH 2.3) worked out at 3.06. Further, the pest or weed control at 250 ppm in series [5] is at least 70%.

`Cc1cc(Oc2ccc(C3CCCCC3)cc2)c(C)cc1N=CN(C)C(C)C` [Compound 39, N′-{4-[4-cyclohexyl-phenoxy]-2,5-dimethylphenyl}-N-isopropyl-N-methylimidoformamide] returned a logP in series [4] (pH 2.3, logP acidic, acidic) of 3.2.

The values are drawn from patent US8299302B2 (priority 2007, dated 2012).
